Assay results: PubChem BioAssay (NCI)
Several values for one entry are separate records, joined by “and”; a condition that tells them apart may be missing. Equal values may be shown once.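 Where inhibition never reached the appropriate level, the endpoint shown equals the highest concentration tested. Otherwise, values were interpolated linearly from a five-concentration, 48-hour dose response in 96-well plates. GI50 = concentration required for 50% inhibition of growth. TGI: concentration producing complete growth inhibition.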

How the values were obtained:
Experiment in all cases: NCI anticancer screen, dose series, 48 h
[1] = tested on: HOP-62 NSCLC
[2] = tested on: K-562 leukemia
[3] = tested on: SNB-75 CNS
[4] = tested on: TK-10 renal
[5] = tested on: U251 CNS
[6] = tested on: OVCAR-3 ovarian
[7] = tested on: OVCAR-8 ovarian
[8] = tested on: SF-539 CNS
[9] = tested on: HOP-92 NSCLC
[10] = tested on: HCT-15 colon

| Structure (SMILES) | GI50 [1] | TGI [1] | GI50 [2] | TGI [2] | GI50 [3] | TGI [3] | GI50 [4] | TGI [4] | GI50 [5] | TGI [5] | GI50 [6] | TGI [6] | GI50 [7] | TGI [7] | GI50 [8] | TGI [8] | GI50 [9] | TGI [9] | GI50 [10] | TGI [10] |
| --- | --- | --- | --- | --- | --- | --- | --- | --- | --- | --- | --- | --- | --- | --- | --- | --- | --- | --- | --- | --- |
| COc1cc(-c2n/c(=C\c3c(O)[nH]c4ccccc34)cc3c2=Nc2ccccc2-3)cc(OC)c1OC | 0.536 µM | > 100 µM | 586 nM | > 100 µM | 381 nM | > 100 µM | 2.18 µM | 25 µM | 333 nM | 12.1 µM | 506 nM | 2.6 µM | 2530 nM | > 100 µM | 783 nM | 7.83 µM | 385 nM | 6.28 µM | 1.72 µM | > 100 µM |
| Cc1cc(NC(=O)NC(=O)c2ccccc2NC(=O)CN)ccc1Oc1ncc(Br)cn1 | 0.47 µM | 4.18 µM and 22.3 µM | 28.5 nM | – | – | 3.28 µM | 3.73 µM | 36.4 µM and 25.3 µM | 409 nM | 15 µM and 20.6 µM | 15.7 nM | – | 650 nM | 45.7 µM and 17.8 µM | 76.2 nM and 50.9 nM | 0.351 µM and 0.481 µM | – | 32.7 µM | – | 42.2 µM |
| C=C(C)[C@@H]1CC[C@]2(C(=O)NCCNCCNCCN)CC[C@]3(C)[C@H](CC[C@@H]4[C@@]5(C)CCC(=O)C(C)(C)[C@@H]5CC[C@]43C)[C@@H]12 | 7.91 µM | 16.6 µM | 8200 nM | 21.8 µM | 6250 nM | 14.1 µM | 10.1 µM | 19.7 µM | 7340 nM | 14.6 µM | 7650 nM | 15 µM | 8410 nM | 16.2 µM | 7530 nM | 14.6 µM | 2930 nM | 10.3 µM | 7.65 µM | 15.7 µM |
| CCC[CH2][Sn]1([CH2]CCC)[O]C(=O)CN=Cc2ccccc2[O]1 | 4.01 µM | > 100 µM | 192 nM | 1.27 µM | 282 nM | 0.849 µM | 0.292 µM | 0.729 µM | 305 nM | 1.09 µM | 545 nM | 1.82 µM | 346 nM | 1.39 µM | 1300 nM | > 100 µM | 182 nM | 0.519 µM | 0.358 µM | 1.56 µM |
| N#C[C@H]1Nc2ccccc2[C@@H](O)C1O (some centres not stated) | – | > 100 µM | – | > 100 µM | – | > 100 µM | – | > 100 µM | – | > 100 µM | – | > 100 µM | – | > 100 µM | – | > 100 µM | – | > 100 µM | – | > 100 µM |
| CC1=CC2CC(C)C1(C)CCc1ccoc12 (configuration not stated) | – | > 100 µM | – | > 100 µM | – | > 100 µM | – | > 100 µM | – | > 100 µM | – | > 100 µM | – | > 100 µM | – | > 100 µM | – | > 100 µM | – | > 100 µM |
| CN1CCC(n2[nH]c(-c3ccccc3)c(Cc3ccccc3)c2=O)CC1 | – | > 100 µM | – | > 100 µM | – | > 100 µM | – | > 100 µM | – | > 100 µM | – | > 100 µM | – | > 100 µM | – | > 100 µM | – | > 100 µM | – | > 100 µM |
| COC(=O)[C@@H]1CCCN1C(=O)[C@H]1CCCN1C(=O)[C@@H](Cc1c[nH]c2ccccc12)NC(=S)Nc1cc(C(F)(F)F)cc(C(F)(F)F)c1 | 3.25 µM | 12.1 µM | 3730 nM | 12.2 µM | 1400 nM | 6.75 µM | 2.58 µM | 6.62 µM | 1920 nM | 4.52 µM | 2480 nM | 5.71 µM | 2550 nM | 6.4 µM | 3830 nM | 14.3 µM | 1120 nM | 3.43 µM | 3.35 µM | 12.8 µM |
| O=C1CC/C(=C\COc2ccc3ccc(=O)oc3c2)O1 | 17.6 µM | 38.2 µM | 9890 nM | > 100 µM | 12700 nM | 30.2 µM | 2.83 µM | 17.7 µM | 10300 nM | 22.8 µM | 4440 nM | 22 µM | 16600 nM | 40.8 µM | 2620 nM | 19.2 µM | 10600 nM | 25.5 µM | 3.84 µM | 17.1 µM |
| COc1ccc2c(c1)C(=O)c1c-2n(CCCN2CCOCC2)c(=O)c2cc([N+](=O)[O-])ccc12 | < 0.01 µM | 0.364 µM | < 10 nM | > 37 µM | < 10 nM | – | 0.0623 µM | 17.7 µM | < 10 nM | 0.0598 µM | < 11.3 nM | 1.49 µM | < 10 nM | > 50.6 µM | < 10 nM | < 0.01 µM | < 10 nM | < 0.01 µM | < 0.0151 µM | 13.3 µM |
| COc1ccc(-n2c(C)nc3c(c(C)nn3-c3ccccc3)c2=O)cc1 | 0.0789 µM | > 100 µM | 35.6 nM | > 68.1 µM | 27.6 nM | > 100 µM | 9.02 µM | > 100 µM | 61.4 nM | > 100 µM | 41.4 nM | – | 177 nM | > 100 µM | 47.1 nM | – | 433 nM | 29.3 µM | 0.0483 µM | > 100 µM |
| CC1(C)Cc2c(Br)c(Br)c(Br)c(OCC(O)CN3CCOCC3)c2O1 (configuration not stated) | 12.2 µM | 27.3 µM | 3100 nM | 14.3 µM | 12600 nM | 38.1 µM | 14.5 µM | 30 µM | 13700 nM | 27.9 µM | 12300 nM | 28.5 µM | 11300 nM | 35.4 µM | 12500 nM | 26 µM | 3760 nM | 21.5 µM | 13.7 µM | 26.8 µM |
| Cc1ccc2[nH]c(C(=O)NN3C(=O)C(C)SC34CCCCC4C)c(-c3ccccc3)c2c1 (configuration not stated) | 20.2 µM | 37.7 µM | 18500 nM | 60 µM | 21200 nM | 41.7 µM | 19.1 µM | 35.6 µM | 16100 nM | 32.8 µM | 14400 nM | 31.7 µM | 20900 nM | 43.2 µM | 22300 nM | 44.9 µM | 19500 nM | 38.5 µM | 18 µM | 38.5 µM |
| CC(C)=CC1CC(C)C2(CCC3(C)CC4C(C(=O)CC4(C)O)/C(C=O)=C\CC32)O1 (configuration not stated) | – | 0.274 µM | – | 0.232 µM | – | 0.237 µM | – | 0.0596 µM | – | 0.197 µM | – | 0.0503 µM | – | 0.214 µM | – | 0.239 µM | – | 0.2 µM | – | 0.105 µM |
| COc1ccc(-c2cc(-c3nnc(SCC(=O)Nc4ccc(C(C)=O)cc4)o3)c3ccccc3n2)cc1 | 15.7 µM | 58.6 µM | > 100000 nM | > 100 µM | 3650 nM | 22.6 µM | 28.7 µM | 78.6 µM | 10200 nM | 55.9 µM | 62600 nM | > 100 µM | 48900 nM | > 100 µM | 33900 nM | > 100 µM | 9100 nM | 37.5 µM | > 100 µM | > 100 µM |
| NC(=O)NCCSC1CCCCC1O (configuration not stated) | – | > 100 µM | – | > 100 µM | – | > 100 µM | – | > 100 µM | – | > 100 µM | – | > 100 µM | – | > 100 µM | – | > 100 µM | – | > 100 µM | – | > 100 µM |
| COc1ccccc1NC(=O)C1=C(C)NC(C)=C(C(=O)Nc2ccccc2OC)C1c1cccc2c1OCO2 | – | > 100 µM | – | > 100 µM | – | 50.9 µM | – | > 100 µM | – | > 100 µM | – | > 100 µM | – | > 100 µM | – | > 100 µM | – | > 100 µM | – | > 100 µM |
| Cc1cc(C)c2c(N)c3cccc(C)c3nc2n1 | 1.81 µM | 5.03 µM | 2360 nM | 8.71 µM | 1830 nM | 6.63 µM | 1.83 µM | 7.05 µM | 2470 nM | 10.6 µM | 2570 nM | 5.46 µM | 1550 nM | 14.8 µM | 1610 nM | 5.01 µM | 2240 nM | 6.96 µM | 1.76 µM | 6.5 µM |
| COc1ccc(-c2ccccc2)cc1-c1c(Nc2cc(Cl)cc(Cl)c2O)c(=O)c1=O | 1.56 µM | > 50 µM | 1590 nM | > 50 µM | 1030 nM | 3.61 µM | 2.84 µM | > 50 µM | 1630 nM | > 50 µM | 1280 nM | 3.88 µM | 1840 nM | > 50 µM | 1590 nM | > 50 µM | 929 nM | 2.81 µM | 1.5 µM | > 50 µM |
| CCN1CCC(CC(=O)Nc2n[nH]c3nc(-c4cccs4)c(Br)cc23)CC1 | 10.6 µM | > 25 µM | 7610 nM | > 19.2 µM | 2340 nM | > 20.4 µM | 5.81 µM | > 21.4 µM | 6780 nM | 19.4 µM | 10400 nM | > 25 µM | 11600 nM | > 25 µM | 9220 nM | > 22.2 µM | > 24100 nM | > 25 µM | 6.89 µM | > 20.6 µM |
| c1cncc(CNc2ncn[nH]2)c1 | – | > 100 µM | – | > 100 µM | – | > 100 µM | – | > 100 µM | – | > 100 µM | – | > 100 µM | – | > 100 µM | – | > 100 µM | – | > 100 µM | – | > 100 µM |
